Laboratory results published in US7713969B2, “Compositions and methods for treatment of cancer” (ArQule, Inc., priority 2005, dated 2010).
Where two headings read alike, the source gives them in different places.

Assays:
[1] = test system: MDA-MB-231 cells or Paca-2 cells; assay: Cell survival in six-well plates, Wright-Giemsa stain (Example 77); format: cell-based; conditions: Homo sapiens; 0.1-2 μM, cultures observed 10-15 days; cell line of the IC50 not stated
Procedure: Exponentially growing MDA-MB-231 cells or Paca-2 cells were seeded at 1,000 cells per well in six-well plates and allowed to attach for 24 hours. MDA-MB-231 and Paca-2 cells were cultured in DMEM supplemented with 10% (v/v) fetal calf serum (FCS) and 5 ml Penicillin/Streptomycin at 37° C. in 5% CO2. MDA-MB-231 and Paca-2 were established estrogen receptor negative human breast cancer and pancreatic carcinoma cell lines, respectively. (±)-cis-3-(5,6-dihydro-4H-pyrrolo[3,2,1-ij]quinolin-1yl)-4(1H-indol-3-yl)pyrrolidine-2,5-dione or (±)-trans-3-(5,6-dihydro-4H-pyrrolo[3,2,1-ij]quinolin-1-yl)-4(1H-indol-3-yl)pyrrolidine-2,5-dione were each dissolved at a concentration of 10 mM in DMSO, and separately added to cells at a concentration of 0.1, 0.25, 0.5, 1 or 2 μM. Control plates received DMSO alone, at the same percentage of total culture volume as that administered in conjunction with the highest concentration of drug. Cell cultures were observed daily for 10-15 days, then fixed and stained with modified Wright-Giemsa stain (Sigma). Treatment with (±)-cis-3-(5,6-dihydro-4H-pyrrolo [3,2,1-ij]quinolin-1yl)-4(1H-indol-3-yl)pyrrolidine-2,5-dione or (±)-trans-3-(5,6-dihydro-4H-pyrrolo[3,2,1-ij]quinolin-1-yl)-4(1H-indol-3-yl)pyrrolidine-2,5-dione results in cell death of MDA-MB-231 cells or Paca-2 cells. See, e.g., FIG. 2.

[2] = test system: PACA-2 human pancreatic cancer xenograft; assay: Pancreatic cancer xenograft model (Example 88); format: in vivo, mice; conditions: for optimal tumor growth inhibition: daily 5 days on/2 off, 20 doses
Procedure: PACA-2 human pancreatic cancer cells were inoculated subcutaneously into female athymic nude mice (5×10^6 cells/mouse) and allowed to form palpable tumors. Once the tumors reached approximately 60 mm^3, the animals were treated orally with (−)-trans-3-(5,6-dihydro-4H-pyrrolo[3,2,1-ij]quinolin-1-yl)-4(1H-indol-3-yl) pyrrolidine-2,5-dione at 200 mg/kg or 300 mg/kg or vehicle control daily (5 consecutive days, followed by a 2 day dosing holiday). (−)-trans-3-(5,6-dihydro-4H-pyrrolo[3,2,1-ij]quinolin-1-yl)-4(1H-indol-3-yl)pyrrolidine-2,5-dione was formulated in PEG 400:20% Vitamin E TPGS (60:40). The animals received a total of 20 doses of (−)-trans-3-(5,6-dihydro-4H-pyrrolo[3,2,1-ij]quinolin-1-yl)-4(1H-indol-3-yl)pyrrolidine-2,5-dione or vehicle control. Tumors were measured throughout treatment and the post-treatment observation period. Each point represents the mean±SEM of ten tumors. (See FIG. 12)

[3] = target: c-Met (Homo sapiens, UniProt P08581); assay: c-Met inhibition, phospho-c-Met blot with densitometry (Example 83); format: cell-based; parameters: whole cell extracts were prepared; endogenous in cells; host or cells: MCF-7, MDA-MB-231, DLD1, HT29, PACA2, PANC-1, NCI-H441; conditions: 24 hours treatment, read-out: (−)-trans IC50 c-Met Inhibition
Procedure: To determine c-met inhibition, exponentially growing MCF-7 and MDA-MB-231 human breast cancer cells, DLD1 and HT29 human colon cancer cells, PACA2 and PANC-1 human pancreatic cancer cells and NCI-H441 human non-small cell lung cancer cells (H441) were serum starved in 0.5% FBS and treated with increasing amounts of (−)-trans-3-(5,6-dihydro-4H-pyrrolo [3,2,1-ij]quinolin-1-yl)-4(1H-indol-3-yl)pyrrolidine-2,5-dione for 24 hours as indicated. Cells were then left unstimulated or stimulated with 100 ng/mL HGF for 10 minutes and whole cell extracts were prepared. Whole cell lysates (50 μg) were resolved by SDS-PAGE, transferred onto a PVDF membrane, and an enhanced chemiluminescence assay system (ECL) was used to determine the phosphorylation status of c-Met. A polyclonal antibody against phospho (Y1349) c-Met (phospho-c-Met) was obtained from Biosource International and a monoclonal antibody against β-actin was purchased from Invitrogen. Percent inhibition was determined by densitometry using the Scion Image For colony formation assays (CFA), exponentially growing cells were seeded at 2,000 cells per well in 6-well plates and allowed to attach for 24 hours. Increasing concentrations of (−)-trans-3-(5,6-dihydro-4H-pyrrolo[3,2,1-ij]quinolin-1-yl)-4(1H-indol-3-yl)pyrrolidine-2,5-dione (from 0.01 to 30 μM) were then added to the media for another 24 hours. After 24 hours exposure, the drug was removed and fresh media was added for the next 14-21 days, allowing for colony formation. Cells were fixed and stained with GEMSA (Gibco BRL). Colonies of greater than 50 cells were scored as survivors and percentage of cell survival was plotted to determine the IC50. […] The IC50 of (−)-trans-3-(5,6-dihydro-4H-pyrrolo[3,2,1-ij]quinolin-1-yl)-4(1H-indol-3-yl) pyrrolidine-2,5-dione for c-Met expressing solid tumor types is in the 0.1-0.7 μM range following exposure to (−)-trans-3-(5,6-dihydro-4H-pyrrolo[3,2,1-ij]quinolin-1-yl)-4(1H-indol-3-yl)pyrrolidine-2,5-dione for 24 hours, as determined by colony formation assay (CFA).

Chain of c-Met (P08581 25-1390): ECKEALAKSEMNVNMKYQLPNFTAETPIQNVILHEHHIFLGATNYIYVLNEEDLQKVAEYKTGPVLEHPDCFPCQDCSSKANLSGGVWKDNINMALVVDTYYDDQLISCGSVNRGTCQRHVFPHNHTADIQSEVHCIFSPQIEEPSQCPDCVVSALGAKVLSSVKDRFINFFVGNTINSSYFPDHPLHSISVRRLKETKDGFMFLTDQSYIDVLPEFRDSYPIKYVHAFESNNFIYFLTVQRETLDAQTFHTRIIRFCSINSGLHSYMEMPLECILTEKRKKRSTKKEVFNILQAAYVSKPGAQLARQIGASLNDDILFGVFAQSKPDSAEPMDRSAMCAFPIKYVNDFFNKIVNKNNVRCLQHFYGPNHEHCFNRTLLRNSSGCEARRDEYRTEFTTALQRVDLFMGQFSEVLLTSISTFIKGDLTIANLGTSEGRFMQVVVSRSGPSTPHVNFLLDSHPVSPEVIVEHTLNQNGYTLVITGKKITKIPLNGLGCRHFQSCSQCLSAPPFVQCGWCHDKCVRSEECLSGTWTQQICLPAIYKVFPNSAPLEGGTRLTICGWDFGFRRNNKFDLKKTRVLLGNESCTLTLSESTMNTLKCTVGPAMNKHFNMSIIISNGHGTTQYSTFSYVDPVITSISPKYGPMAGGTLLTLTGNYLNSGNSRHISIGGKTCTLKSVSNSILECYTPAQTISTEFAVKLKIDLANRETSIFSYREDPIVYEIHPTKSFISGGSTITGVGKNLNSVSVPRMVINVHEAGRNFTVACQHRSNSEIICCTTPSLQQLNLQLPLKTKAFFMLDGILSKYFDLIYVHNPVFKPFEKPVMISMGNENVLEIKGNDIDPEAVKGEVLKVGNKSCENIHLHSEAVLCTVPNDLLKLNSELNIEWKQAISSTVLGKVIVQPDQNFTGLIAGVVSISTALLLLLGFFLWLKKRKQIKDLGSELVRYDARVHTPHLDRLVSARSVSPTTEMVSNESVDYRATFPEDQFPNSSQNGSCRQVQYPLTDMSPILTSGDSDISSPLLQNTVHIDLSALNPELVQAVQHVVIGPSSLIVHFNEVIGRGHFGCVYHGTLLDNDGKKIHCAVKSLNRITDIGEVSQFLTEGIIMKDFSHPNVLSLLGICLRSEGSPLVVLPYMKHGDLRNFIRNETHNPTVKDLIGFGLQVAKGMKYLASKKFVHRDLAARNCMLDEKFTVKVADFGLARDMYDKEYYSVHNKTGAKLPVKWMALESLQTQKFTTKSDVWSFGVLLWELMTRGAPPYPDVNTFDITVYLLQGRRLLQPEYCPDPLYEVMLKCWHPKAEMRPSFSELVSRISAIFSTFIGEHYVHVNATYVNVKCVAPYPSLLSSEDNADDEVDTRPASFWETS

Row | SMILES | IC50 [1] [nM] | change in body weight ([2]; 200 mg/kg and 300 mg/kg oral administration) | optimal tumor growth inhibition ([2]; 200 mg/kg orally) [%] | optimal tumor growth inhibition ([2]; 300 mg/kg orally) [%] | IC50 ([3]; DLD-1 cells) [nM] | IC50 ([3]; H441 cells) [nM] | IC50 ([3]; HT-29 cells) [nM] | IC50 ([3]; MCF-7 cells) [nM] | IC50 ([3]; MDA-MB-231 cells) [nM] | IC50 ([3]; PACA2 cells) [nM] | IC50 ([3]; PANC-1 cells) [nM]
1 | O=C1NC(=O)[C@@H](c2cn3c4c(cccc24)CCC3)[C@@H]1c1c[nH]c2ccccc12 (racemic) [(±)-Trans-3-(5,6-dihydro-4H-pyrrolo[3,2,1-ij]quinolin-1-yl)-4(1H-indol-3-yl)pyrrolidine-2,5-dione] | 500 | – | – | – | – | – | – | – | – | – | –
2 | O=C1NC(=O)C(c2cn3c4c(cccc24)CCC3)C1c1c[nH]c2ccccc12 (single isomer, unassigned; (-)) | – | no significant change in body weight | 58 | 60 | 3000 | 100 | 300 | 100 | 100 | 100 | 500
